Measured values reported in PubChem BioAssay AID248 (DTP/NCI, 2004).
“And” between values parts separate entries of the source, which are not always exact repeats. Identical values can stand only once. Inconclusive results and toxic doses are left out. Cut-off read from the data, not from the text of the source: active = T/C of 150% or more; inactive = T/C below 125%.

Test system: L1210 leukemia ip in BDF1 mice, survival T/C
Test: NCI In Vivo Anticancer Drug Screen. Data for tumor model L1210 Leukemia (intraperitoneal) in B6D2F1 (BDF1) mice
Conditions: endpoint: mean survival time, higher = longer survival
In short: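 Tumor was transplanted into mice, which were then dosed with test compound or vehicle alone. Survival was recorded for each group, and the treated figure was expressed relative to the control figure.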

[1] = dose: 50.0 mg/kg/injection, schedule: Q01DX001 (ip), vehicle: saline
[2] = dose: 100.0 mg/kg/injection, schedule: Q01DX001 (ip), vehicle: saline
[3] = dose: 100.0 mg/kg/injection, schedule: Q01DX009 (ip), vehicle: Klucel (hydroxypropylcellulose) (HPC)
[4] = dose: 200.0 mg/kg/injection, schedule: Q01DX009 (ip), vehicle: Klucel (hydroxypropylcellulose) (HPC)
[5] = dose: 400.0 mg/kg/injection, schedule: Q01DX009 (ip), vehicle: Klucel (hydroxypropylcellulose) (HPC)
[6] = dose: 50.0 mg/kg/injection, schedule: Q01DX001 (ip), vehicle: carboxymethylcellulose (CMC)
[7] = dose: 100.0 mg/kg/injection, schedule: Q01DX001 (ip), vehicle: carboxymethylcellulose (CMC)
[8] = dose: 200.0 mg/kg/injection, schedule: Q01DX001 (ip), vehicle: carboxymethylcellulose (CMC)
[9] = dose: 400.0 mg/kg/injection, schedule: Q01DX001 (ip), vehicle: carboxymethylcellulose (CMC)
[10] = dose: 100.0 mg/kg/injection, schedule: Q04DX003 (ip), vehicle: saline with Tween-80
[11] = dose: 200.0 mg/kg/injection, schedule: Q04DX003 (ip), vehicle: saline with Tween-80
[12] = dose: 400.0 mg/kg/injection, schedule: Q04DX003 (ip), vehicle: saline with Tween-80
[13] = dose: 25.0 mg/kg/injection, schedule: Q01DX009 (ip), vehicle: Klucel (hydroxypropylcellulose) (HPC)
[14] = dose: 50.0 mg/kg/injection, schedule: Q01DX009 (ip), vehicle: Klucel (hydroxypropylcellulose) (HPC)
[15] = dose: 25.0 mg/kg/injection, schedule: Q04DX002 (ip), vehicle: saline
[16] = dose: 50.0 mg/kg/injection, schedule: Q04DX002 (ip), vehicle: saline
[17] = dose: 100.0 mg/kg/injection, schedule: Q04DX002 (ip), vehicle: saline
[18] = dose: 50.0 mg/kg/injection, schedule: Q01DX001 (ip), vehicle: Klucel (hydroxypropylcellulose) (HPC)
[19] = dose: 100.0 mg/kg/injection, schedule: Q01DX001 (ip), vehicle: Klucel (hydroxypropylcellulose) (HPC)
[20] = dose: 200.0 mg/kg/injection, schedule: Q01DX001 (ip), vehicle: saline
[21] = dose: 400.0 mg/kg/injection, schedule: Q01DX001 (ip), vehicle: saline
[22] = dose: 100.0 mg/kg/injection, schedule: Q04DX003 (ip), vehicle: Klucel (hydroxypropylcellulose) (HPC)
[23] = dose: 200.0 mg/kg/injection, schedule: Q04DX003 (ip), vehicle: Klucel (hydroxypropylcellulose) (HPC)
[24] = dose: 400.0 mg/kg/injection, schedule: Q04DX003 (ip), vehicle: Klucel (hydroxypropylcellulose) (HPC)
[25] = dose: 100.0 mg/kg/injection, schedule: Q04DX002 (ip), vehicle: Klucel (hydroxypropylcellulose) (HPC)
[26] = dose: 100.0 mg/kg/injection, schedule: Q01DX001 (ip), vehicle: saline with Tween-80
[27] = dose: 200.0 mg/kg/injection, schedule: Q01DX001 (ip), vehicle: saline with Tween-80
[28] = dose: 400.0 mg/kg/injection, schedule: Q01DX001 (ip), vehicle: saline with Tween-80

Measured: T/C

CC1=CC(=O)OC2(C1)CC1CCC2CN1C (stereo unspecified)
inactive: [1] 95 % of control | [2] 101 % of control

CCCOC(=O)c1cncn1C(C)c1ccccc1 (stereo unspecified)
inactive: dose: 25.0 mg/kg/injection, schedule: Q01DX001 (ip), vehicle: saline 98 % of control | [1] 96 % of control | [2] 94 % of control

CN(CCC#N)c1ccc(/C=C(\C#N)c2ccc(Cl)cc2)cc1
inactive: [3] 102 % of control | [4] 103 % of control | [5] 105 % of control

CCOC(=O)C1CC(=O)c2c1ccc1ccccc21 (stereo unspecified)
inactive: dose: 75.0 mg/kg/injection, schedule: Q01DX001 (ip), vehicle: other 105 % of control | dose: 150.0 mg/kg/injection, schedule: Q01DX001 (ip), vehicle: other 97 % of control | dose: 300.0 mg/kg/injection, schedule: Q01DX001 (ip), vehicle: other 96 % of control

O=C1C2(c3ccccc3)CC(CBr)C1(c1ccccc1)C(c1ccccc1)=C2c1ccccc1 (stereo unspecified)
inactive: [6] 97 % of control | [7] 100 % of control | [8] 97 % of control | [9] 97 % of control

N#CC(C#N)=C/C=C/c1cccc([N+](=O)[O-])c1
inactive: dose: 38.0 mg/kg/injection, schedule: Q01DX009 (ip), vehicle: saline 102 % of control

Cn1c2ccccc2c(=O)c2cc([N+](=O)[O-])ccc21
inactive: [10] 93 % of control | [11] 97 % of control | [12] 93 % of control

CCOC(=O)C(C=O)C(C(=O)OCC)C(OCC)OCC (stereo unspecified)
inactive: [10] 111 % of control | [11] 104 % of control | [12] 109 % of control

CN(C)c1ccc(SCC(=O)c2ccccc2)cc1
inactive: [10] 93 % of control | [11] 101 % of control | [12] 95 % of control

c1ccc(C2C(c3ccccc3)N2CCNC2=NCCN2)cc1 (stereo unspecified)
inactive: dose: 12.5 mg/kg/injection, schedule: Q01DX009 (ip), vehicle: Klucel (hydroxypropylcellulose) (HPC) 91 % of control | [13] 102 % of control | [14] 91 % of control

CCCCCCCC(=O)N(CC(C)C)CC(C)C
inactive: [7] 102 % of control | dose: 100.0 mg/kg/injection, schedule: Q01DX009 (ip), vehicle: carboxymethylcellulose (CMC) 97 % of control | dose: 100.0 mg/kg/injection, schedule: Q04DX002 (ip), vehicle: carboxymethylcellulose (CMC) 101 % of control and 102 % of control | dose: 100.0 mg/kg/injection, schedule: Q04DX003 (ip), vehicle: carboxymethylcellulose (CMC) 97 % of control | [8] 96 % of control | dose: 200.0 mg/kg/injection, schedule: Q01DX009 (ip), vehicle: carboxymethylcellulose (CMC) 93 % of control and 98 % of control | dose: 200.0 mg/kg/injection, schedule: Q04DX002 (ip), vehicle: carboxymethylcellulose (CMC) 97 % of control and 102 % of control | dose: 200.0 mg/kg/injection, schedule: Q04DX003 (ip), vehicle: carboxymethylcellulose (CMC) 97 % of control | [9] 91 % of control | dose: 400.0 mg/kg/injection, schedule: Q04DX002 (ip), vehicle: carboxymethylcellulose (CMC) 94 % of control | dose: 400.0 mg/kg/injection, schedule: Q04DX003 (ip), vehicle: carboxymethylcellulose (CMC) 90 % of control

N#Cc1ccccc1C(N)=O
inactive: dose: 12.5 mg/kg/injection, schedule: Q04DX002 (ip), vehicle: saline 107 % of control | [15] 98 % of control | [16] 102 % of control | [17] 90 % of control

O=C(CCN1CC1)OCCCl
inactive: [18] 112 % of control | [19] 106 % of control | dose: 200.0 mg/kg/injection, schedule: Q01DX001 (ip), vehicle: Klucel (hydroxypropylcellulose) (HPC) 101 % of control | dose: 400.0 mg/kg/injection, schedule: Q01DX001 (ip), vehicle: Klucel (hydroxypropylcellulose) (HPC) 111 % of control

COc1cc(C)c2c(c1OC)C(=O)CC2
inactive: [2] 94 % of control | [20] 105 % of control | [21] 88 % of control

OCC1(CO)COC2(CCCCC2)OC1
inactive: [22] 89 % of control | [23] 91 % of control | [24] 91 % of control

Cc1ccc(NCC(=O)NN)cc1F
inactive: dose: 25.0 mg/kg/injection, schedule: Q04DX002 (ip), vehicle: Klucel (hydroxypropylcellulose) (HPC) 102 % of control | dose: 50.0 mg/kg/injection, schedule: Q04DX002 (ip), vehicle: Klucel (hydroxypropylcellulose) (HPC) 109 % of control | [25] 109 % of control and 112 % of control

COc1cc(NCCCCCNC(C)C)c2ncccc2c1
inactive: dose: 5.0 mg/kg/injection, schedule: Q04DX002 (ip), vehicle: saline with Tween-80 100 % of control | dose: 10.0 mg/kg/injection, schedule: Q04DX002 (ip), vehicle: saline with Tween-80 97 % of control | dose: 20.0 mg/kg/injection, schedule: Q04DX002 (ip), vehicle: saline with Tween-80 100 % of control

Cc1cccc(C)c1NC(=S)Nc1ccccc1
inactive: [25] 101 % of control | dose: 200.0 mg/kg/injection, schedule: Q04DX002 (ip), vehicle: Klucel (hydroxypropylcellulose) (HPC) 105 % of control | dose: 400.0 mg/kg/injection, schedule: Q04DX002 (ip), vehicle: Klucel (hydroxypropylcellulose) (HPC) 90 % of control

CCC(C)c1c(N)nc(N)[nH]c1=O (stereo unspecified)
inactive: [22] 94 % of control | [23] 106 % of control | [24] 110 % of control

CCNCCC[P+](c1ccccc1)(c1ccccc1)c1ccccc1
inactive: [15] 98 % of control | [16] 105 % of control | [17] 98 % of control and 91 % of control

COC1(OC)CCC=C(CNc2ncnc3nc[nH]c23)C1
inactive: [26] 102 % of control | [27] 94 % of control | [28] 100 % of control

OC(c1ccccc1)C1C(c2ccccc2)N1C1CCCCC1 (stereo unspecified)
inactive: [13] 97 % of control | [14] 96 % of control | [22] 101 % of control | [23] 98 % of control

O/N=C\c1ccccc1
inactive: [14] 92 % of control | [3] 86 % of control

CC1(C)CCC2=C(O1)c1ccccc1C(=O)C2=O
inactive: dose: 25.0 mg/kg/injection, schedule: Q01DX001 (ip), vehicle: Klucel (hydroxypropylcellulose) (HPC) 102 % of control | [18] 98 % of control | [19] 94 % of control and 102 % of control

CC(=O)CC(=O)Nc1cc(Cl)ccc1C
inactive: [22] 92 % of control | [4] 92 % of control | [23] 97 % of control | [24] 92 % of control

CC(=O)NOCc1ccc(Cl)cc1
inactive: [22] 100 % of control | [23] 95 % of control | [24] 95 % of control

O=S(=O)(Nc1ccccc1)c1ccc2c(Cl)cc(S(=O)(=O)Nc3ccccc3)cc2c1
inactive: [26] 93 % of control | [27] 93 % of control | [28] 91 % of control

CNC(=O)OCCO
inactive: [2] 100 % of control | [20] 101 % of control | [21] 97 % of control

CCCCCCC1CC1
inactive: dose: 50.0 mg/kg/injection, schedule: Q01DX009 (ip), vehicle: saline 94 % of control | dose: 100.0 mg/kg/injection, schedule: Q01DX009 (ip), vehicle: saline 102 % of control | dose: 200.0 mg/kg/injection, schedule: Q01DX009 (ip), vehicle: saline 102 % of control

CCc1c([N+](=O)[O-])oc2ccc(Cl)cc12
inactive: [3] 103 % of control | [4] 105 % of control | [5] 107 % of control

CCSCC1OC(n2cnc3c(N)ncnc32)CC1SCC (stereo unspecified)
inactive: [6] 104 % of control | [7] 104 % of control | [2] 98 % of control | [8] 111 % of control | [20] 89 % of control | [9] 101 % of control | [21] 92 % of control
